Values of other authors, collected in patent US7074826B2, “R-NSAID esters and their use” (Encore Pharmaceuticals, Inc., priority 2002, dated 2006).

What was measured:
Alzheimer's dementia = conditions: limited clinical trial

c1ccc([C@H]2CN3CCSC3=N2)cc1 [levamisole]
survival rate among colon cancer patients (colon cancer patients; added to 5-fluorouracil): improved survival rate

CC(C)Cc1ccc(C(C)C(=O)O)cc1 (racemic) [racemic ibuprofen, ibuprofen]
adverse effects of high doses (cystic fibrosis patients; high doses employed in the Konstan study): conjunctivitis and epistaxis
progression of the lung disease (cystic fibrosis patients; high doses, cystic fibrosis patients, four-year period): slows progression of the lung disease

O=c1[nH]cc(F)c(=O)[nH]1 [5-fluorouracil]
survival among colon cancer patients (colon cancer patients; administered alone): No improvement in survival

COc1ccc2c(c1)c(CC(=O)O)c(C)n2C(=O)c1ccc(Cl)cc1 [indomethacin]
progression of Alzheimer's dementia (Alzheimer's dementia): retardation in the progression of Alzheimer's dementia
